Measurements from US20250213707A1, “COMPOUND FOR INCREASING EFFICACY OF ONCOLYTIC VIRUSES” (ABLEVIA BIOTECH GMBH, priority 2022, published 2025).

Tested on: IgG from human donors (anti-AAV antibodies)
Assay: Screen for anti-AAV antibodies in human sera, 2452 linear 15-amino-acid AAV peptides on microarrays (Table 1)
Format: binding
Parameters: key to group I: X: the deduplicated aggregate of the respective top 10 peptide hits for each donor was compiled and designated as group I; key to group II: X: the deduplicated aggregate of the respective top 25 peptide hits for each donor was compiled and designated as group II; key to group III: X: the deduplicated aggregate of the respective top 50 peptide hits for each donor was compiled and designated as group III
Conditions: for group I: membership in deduplicated aggregate of top 10 peptide hits for each donor
Experimental: 2452 linear peptides derived from the sequences of 16 different AAVs and with a sequence length of 15 amino-acids each were synthesized.
Samples obtained from human donors were screened for antibodies against these AAV-derived peptides immobilized on microarrays. To this end, IgG was prepared from blood obtained from the human donors by protein G purification. Each IgG sample was incubated with the peptide microarrays and Ig binding signals were detected by fluorescence. All antibody binding signals to the peptides on the arrays were background subtracted and ranked for each sample and a deduplicated aggregate of the respective top 250 peptide hits for each donor with the corresponding protein sequence of origin (as obtained from UniProt or other sources) was compiled (designated as group IV). Further, the deduplicated aggregate of the respective top 50 peptide hits for each donor was compiled and designated as group III. Further, the deduplicated aggregate of the respective top 25 peptide hits for each donor was compiled and designated as group II. Finally, the deduplicated aggregate of the respective top 10 peptide hits for each donor was compiled and designated as group I.
Altogether, group I contains 110 distinct peptide hits (assigned to the corresponding AAV vectors in Table 1), group II contains 289 distinct peptide hits, group III contains 428 distinct peptide hits and group IV contains 1271 distinct peptide hits. Evidently, group I is a subset of group II which in turn is a subset of group III which in turn is a subset of group IV. Groups I-IV correspond to the top 4.4%, […], 17.5% and 51.8%, respectively, of all peptides screened.

[1] = X = peptide belongs to the deduplicated aggregate of the top 50 peptide hits for each donor, linear 15-amino-acid AAV peptides, IgG binding by fluorescence
[2] = X = peptide in the deduplicated aggregate of the top 50 peptide hits for each donor (top 17.5% of all peptides screened), linear 15-amino-acid AAV peptides on microarrays, human donor IgG, fluorescence
[3] = human donor IgG binding to linear 15-amino-acid AAV peptides on microarray, fluorescence
[4] = membership in deduplicated aggregate of top 25 peptide hits for each donor, human donor IgG binding to linear 15-amino-acid AAV peptides on microarray, fluorescence
[5] = membership in deduplicated aggregate of top 50 peptide hits for each donor, human donor IgG binding to linear 15-amino-acid AAV peptides on microarray, fluorescence
[6] = X = peptide belongs to the deduplicated aggregate of the top 25 peptide hits for each donor, linear 15-amino-acid AAV peptides, IgG binding by fluorescence

Substance	group III [1]	group I [3]	group II [4]	group III [5]	other results
336 (VTQNDGTTTIANNLT; REGION 1..15: note = peptide derived from viral capsid protein) [compound 336]	X	–	–	–	–
411 (ILIKNTPVPADPPTA; REGION 1..15: note = peptide derived from viral capsid protein) [compound 411]	–	–	–	–	group III [2]: X
314 (EHDKAYDRQLDSGDN; REGION 1..15: note = peptide derived from viral capsid protein) [compound 314]	X	–	–	–	–
PLVDQYLYRFVSTN (REGION 1..14: note = peptide derived from viral capsid protein) [SEQ ID NO: 1938]	–	X	X	X	–
434 (TNPVATEEYGIVADN; REGION 1..15: note = peptide derived from viral capsid protein) [compound 434]	–	–	–	–	group III [2]: X
323 (RPVEHSPVEPDSSSG; REGION 1..15: note = peptide derived from viral capsid protein) [compound 323]	X	–	–	–	–
YHLNGRDSLVNPGP (REGION 1..14: note = peptide derived from viral capsid protein) [SEQ ID NO: 1904]	–	X	X	X	–
370 (FITQYSTGQVSVEIE; REGION 1..15: note = peptide derived from viral capsid protein) [compound 370]	X	–	–	–	–
325 (DNNEGADGVGNSSGN; REGION 1..15: note = peptide derived from viral capsid protein) [compound 325]	X	–	–	–	–
328 (STVQVFTDSEYQLPY; REGION 1..15: note = peptide derived from viral capsid protein) [compound 328]	X	–	–	–	–
ADPPTTFSQAKLAS [SEQ ID NO: 1939]	–	X	X	X	–
299 (SRTQSTGGTAGTQQL; REGION 1..15: note = peptide derived from viral capsid protein) [compound 299]	X	–	–	–	–
281 (SKPSTSSDAEAGPSG; REGION 1..15: note = peptide derived from viral capsid protein) [compound 281]	X	–	–	–	group II [6]: X
NPGVAMATHKDDEE [SEQ ID NO: 1957]	–	X	X	X	–
287 (AQPASSLGADTMSAG; REGION 1..15: note = peptide derived from viral capsid protein) [compound 287]	X	–	–	–	group II [6]: X
326 (PVATEQYGSVSTNLQ; REGION 1..15: note = peptide derived from viral capsid protein) [compound 326]	X	–	–	–	–
PGAPKPKANQQKQD [SEQ ID NO: 1958]	–	X	X	X	–
DDEDKFFPMSGVMI (REGION 1..14: note = peptide derived from viral capsid protein) [SEQ ID NO: 1937]	–	X	X	X	–
DKDKFFPMSGVMIF (REGION 1..14: note = peptide derived from viral capsid protein) [SEQ ID NO: 1933]	–	X	X	X	–
GTNTMATGSGAPMA (REGION 1..14: note = peptide derived from viral capsid protein) [SEQ ID NO: 1927]	–	X	X	X	–

Substance	group III [1]	group I [3]	group II [4]	group III [5]	other results
416 (LNSFITQYSTGQVSV; REGION 1..15: note = peptide derived from viral capsid protein) [compound 416]	–	–	–	–	group III [2]: X
PPQILIKNTPVPAD [SEQ ID NO: 1959]	–	X	X	X	–
361 (YSTPWGYFDFNRFHC; REGION 1..15: note = peptide derived from viral capsid protein) [compound 361]	X	–	–	–	–
331 (DSLVNPGPAMASHKD; REGION 1..15: note = peptide derived from viral capsid protein) [compound 331]	X	–	–	–	–
474 (ENSKRWNPEIQYTNN; REGION 1..15: note = peptide derived from viral capsid protein) [compound 474]	–	–	–	–	group III [2]: X
APGKKRPVDQSPQE (REGION 1..14: note = peptide derived from viral capsid protein) [SEQ ID NO: 1918]	–	X	X	X	–
424 (ENSKRWNPEIQYTSN; REGION 1..15: note = peptide derived from viral capsid protein) [compound 424]	–	–	–	–	group III [2]: X
454 (YFGYSTPWGYFDFNR; REGION 1..15: note = peptide derived from viral capsid protein) [compound 454]	–	–	–	–	group III [2]: X
384 (HSSYAHSQSLDRLMN; REGION 1..15: note = peptide derived from viral capsid protein) [compound 384]	X	–	–	–	–
366 (MVWQDRDVYLQGPIW; REGION 1..15: note = peptide derived from viral capsid protein) [compound 366]	X	–	–	–	–
338 (PLGLVEEPVKTAPGK; REGION 1..15: note = peptide derived from viral capsid protein) [compound 338]	X	–	–	–	–
385 (TTSTRTWALPTYNNH; REGION 1..15: note = peptide derived from viral capsid protein) [compound 385]	X	–	–	–	–
EEEIKTTNPVATEE (REGION 1..14: note = peptide derived from viral capsid protein) [SEQ ID NO: 1935]	–	X	X	X	–
283 (EFLGLEAGPPKPKPN; REGION 1..15: note = peptide derived from viral capsid protein) [compound 283]	X	–	–	–	group II [6]: X
327 (QVKEVTQNDGTTTIA; REGION 1..15: note = peptide derived from viral capsid protein) [compound 327]	X	–	–	–	–
350 (TQYSTGQVSVEIEWE; REGION 1..15: note = peptide derived from viral capsid protein) [compound 350]	X	–	–	–	–
DWLEDNLSEGIREW (REGION 1..14: note = peptide derived from viral capsid protein) [SEQ ID NO: 1943]	–	X	X	X	–
319 (EQYGSVSTNLQRGNR; REGION 1..15: note = peptide derived from viral capsid protein) [compound 319]	X	–	–	–	–
PRDWQRLINNNWGF (REGION 1..14: note = peptide derived from viral capsid protein) [SEQ ID NO: 1960]	–	X	X	X	–
